{"source": "ChEMBL document CHEMBL4402562", "about": "“Discovery of Novel Peptidomimetic Boronate ClpP Inhibitors with Noncanonical Enzyme Mechanism as Potent Virulence Blockers in Vitro and in Vivo” (J Med Chem, 2020)", "test_system": "Staphylococcus aureus", "assay": "Inhibition of Hla expression in methicillin-resistant Staphylococcus aureus ATCC 33591 at 16 uM by Western blot analysis", "type": "functional, organism-based", "note": "Active and inactive are the calls of the source. The calls are words filed in the database; no cut-off is given here.", "data": [{"compound": "CC(C)C[C@H](NC(=O)[C@H](Cc1c[nH]c2ccccc12)NC(=O)c1cc(Cl)ccc1Cl)B(O)O", "values": [{"measurement": "inhibition", "value": "Active"}]}]}
